System: C57Bl6 mice on a high fat diet
Assay: GPR120 DIO Mice OGTT Screening
Assay type: in vivo, mouse
Details: 10 mg/kg dosed 30 min before glucose, glucose AUC −30 to 90 min, change from vehicle, printed as %
Protocol: 18-22 week old, C57Bl6 mice on a high fat diet (60% HFD) for 12-16 weeks (ave. body weight ˜37-41 g) were fasted for 6 hr, with removal of food occurring at 7 am on the morning of the study. The animals were sorted into treatment groups the day before the study by body weight. Animals outside the bounds of ˜30-50 g were left out of the study. The animals had been handled and shammed a total of 5-8 days (1-3 days immediately prior to the study). Glucose (in 1 ml syringes) was drawn up the morning of the study. Test compounds were kept spinning and were only drawn into 1 ml syringes prior to study commencement. Animals were bled via tail snip to determine basal glucose levels prior to dosing of treatments. […]
Animals were moved into the testing room at ˜9-11 am, to yield them time to acclimate. […] All groups were dosed 30 minutes prior to glucose administration at a dose volume of 10 ml/kg (the dose volume was calculated separately for each individual animal). […]
Thirty minutes after the first dose (with test compound) animals were bled again for a second baseline, or T=0, and immediately dosed with glucose (20% solution; TEKNOVA, 250 ml sterile bottle w/catalogue number G0525) via a PO injection. The exact dose volume for glucose was also calculated separately for each individual animal.
Blood glucose was measured at 15, 30, 45, 60, and 90 minutes post-glucose administration via the snipped tail. […]

Structure (SMILES)	DIO Lowering Glucose AUC (−30 to 90) @10 mg/kg [%]
Cc1cc2c(F)c(OC(F)(F)F)c(F)c(COc3ccc(CCC(=O)O)c(F)c3F)c2o1 [Compound 75, 3-(4-{[4,6-Difluoro-2-methyl-5-(trifluoromethoxy)-1-benzofuran-7-yl]methoxy}-2,3-difluorophenyl)propanoic acid]	−31
Cc1cc2cc(Cl)c(C)c(COc3ccc(CCC(=O)O)c(C)c3C)c2o1 [Compound 85, 3-{4-[(5-Chloro-2,6-dimethyl-1-benzofuran-7-yl)methoxy]-2,3-dimethylphenyl}propanoic acid]	−37
